Laboratory results: patent US9845291B2, “Estrogen receptor modulators and uses thereof” (Genentech, Inc., priority 2014, dated 2017)

Molecular target: estrogen receptor alpha (ESR1) (Homo sapiens, UniProt P03372)
Assay: cell-based
Conditions: for ER-alpha MCF7 HCS Sinf: MCF7 breast cancer cells, 4 hours, plateau of the maximal effect, DMSO and Fulvestrant define 0% and 100% changes in ESR1
Procedure: Where more than one name is associated with a Formula I compound or intermediate, the chemical structure shall define the compound.
Cell plates were incubated at 37° C., for 4 hours. Fixation and permeabilization were carried out using a Biotek EL406 plate washer and dispenser as follows. […] Samples were incubated 30 minutes. Well contents was aspirated and 50 ul/well of Phosphate Buffered Saline (PBS) containing 0.5% w/v bovine serum albumen, 0.5% v/v Triton X-100 (Antibody Dilution Buffer) was added to each well. Samples were incubated for 30 minutes. Well contents were aspirated and washed 3 times with 100 ul/well of PBS. Immunofluorescence staining of estrogen receptor alpha (ESR1) was carried out using a Biotek EL406 plate washer and dispenser as follows. […] Samples were incubated for 2 hours at room temperature. Samples were washed 4 times with 100 ul/well of PBS. […] Samples were incubated for 2 hours at room temperature. Samples were washed 3 times with 100 ul/well of PBS using a Biotek EL406. Quantitative fluorescence imaging of ESR1 was carried out using a Cellomics Arrayscan V (Thermo). […] Channel 1 (DNA stain) was used to define the nuclear region (Circ). […] Data analysis was carried out using Genedata Screener Software, with DMSO and 5 nM Fulvestrant treated samples being used to define the 0% and 100% changes in ESR1. The “Robust Fit” method was used to define the inflexion point of curve (EC50) and the plateau of the maximal effect (Sin f).

estrogen receptor alpha (ESR1), sequence (P03372 whole entry): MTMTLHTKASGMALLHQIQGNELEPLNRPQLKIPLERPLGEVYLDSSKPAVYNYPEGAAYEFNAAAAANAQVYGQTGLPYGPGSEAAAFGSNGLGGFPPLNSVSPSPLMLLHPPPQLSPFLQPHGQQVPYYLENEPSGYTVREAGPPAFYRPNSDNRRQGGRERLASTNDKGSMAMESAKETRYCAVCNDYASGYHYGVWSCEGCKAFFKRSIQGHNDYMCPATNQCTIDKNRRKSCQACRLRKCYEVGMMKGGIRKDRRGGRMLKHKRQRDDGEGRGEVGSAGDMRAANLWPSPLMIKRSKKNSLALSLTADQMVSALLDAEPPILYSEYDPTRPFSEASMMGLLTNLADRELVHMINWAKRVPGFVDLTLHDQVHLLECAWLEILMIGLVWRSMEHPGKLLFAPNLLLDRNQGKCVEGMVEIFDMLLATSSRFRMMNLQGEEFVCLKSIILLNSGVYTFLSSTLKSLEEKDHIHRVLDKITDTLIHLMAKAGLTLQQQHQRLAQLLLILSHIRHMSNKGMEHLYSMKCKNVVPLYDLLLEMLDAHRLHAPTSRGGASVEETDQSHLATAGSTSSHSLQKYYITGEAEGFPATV

C[C@@H](COc1ccc([C@@H]2Oc3ccc(O)cc3S[C@@H]2c2ccc(O)cc2)cc1)N1CC[C@@H](CF)C1 (mixture of isomers) [Example 30, 2-(4-((S)-2-((R)-3-(Fluoromethyl)pyrrolidin-1-yl)propoxy)phenyl)-3-(4-hydroxyphenyl)-2,3-dihydrobenzo[b][1,4]oxathiin-6-ol]
EC50: 1.1 nM
ER-alpha MCF7 HCS Sinf: −99%

Oc1ccc([C@H]2Sc3cc(O)ccc3O[C@H]2c2ccc(OCCN3CC[C@@H](CF)C3)cc2)cc1 (racemic) [Example 28, 2-(4-(2-((R)-3-(Fluoromethyl)pyrrolidin-1-yl)ethoxy)phenyl)-3-(4-hydroxyphenyl)-2,3-dihydrobenzo[b][1,4]oxathiin-6-ol]
EC50: 1 nM
ER-alpha MCF7 HCS Sinf: −97%

Oc1ccc([C@H]2Sc3cc(O)ccc3O[C@H]2c2ccc(OCCN3CC(CF)C3)cc2)cc1 (racemic) [Example 29, 2-(4-(2-(3-(Fluoromethyl)azetidin-1-yl)ethoxy)phenyl)-3-(4-hydroxyphenyl)-2,3-dihydrobenzo[b][1,4]oxathiin-6-ol]
EC50: 0.55 nM
ER-alpha MCF7 HCS Sinf: −101%

Oc1cccc([C@H]2Sc3cc(O)ccc3O[C@H]2c2ccc(OCCN3CC(CF)C3)cc2)c1 (racemic) [Example 31, 2-(4-(2-(3-(Fluoromethyl)azetidin-1-yl)ethoxy)phenyl)-3-(3-hydroxyphenyl)-2,3-dihydrobenzo[b][1,4]oxathiin-6-ol]
EC50: 1.1 nM
ER-alpha MCF7 HCS Sinf: −97%

Oc1ccc2c(c1)CC[C@H](c1ccccc1)[C@@H]2c1ccc(OCCN2CC(CF)C2)cc1 (racemic) [Example 34, cis-5-(4-(2-(3-(Fluoromethyl)azetidin-1-yl)ethoxy)phenyl)-6-phenyl-5,6,7,8-tetrahydronaphthalen-2-ol]
EC50: 0.016 nM
ER-alpha MCF7 HCS Sinf: −99.3%

Cc1c(-c2ccc(O)cc2)n(Cc2ccc(OCCN3CC(CF)C3)cc2)c2ccc(O)cc12 [Example 1, 1-(4-(2-(3-(Fluoromethyl)azetidin-1-yl)ethoxy)benzyl)-2-(4-hydroxyphenyl)-3-methyl-1H-indol-5-ol]
EC50: 0.46 nM
ER-alpha MCF7 HCS Sinf: −95%

Cc1c(-c2ccc(O)cc2)n(Cc2ccc(OC[C@H](C)N3CC[C@@H](CF)C3)cc2)c2ccc(O)cc12 [Example 2, 1-(4-((S)-2-((R)-3-(Fluoromethyl)pyrrolidin-1-yl)propoxy)benzyl)-2-(4-hydroxyphenyl)-3-methyl-1H-indol-5-ol]
EC50: 1.6 nM
ER-alpha MCF7 HCS Sinf: −93%

Cc1c(-c2ccc(F)cc2)n(Cc2ccc(OCCN3CC(CF)C3)cc2)c2ccc(O)cc12 [Example 3, 1-(4-(2-(3-(Fluoromethyl)azetidin-1-yl)ethoxy)benzyl)-2-(4-fluorophenyl)-3-methyl-1H-indol-5-ol]
EC50: 5.5 nM
ER-alpha MCF7 HCS Sinf: −92%

Cc1c(-c2ccccc2)n(Cc2ccc(OCCN3CC(CF)C3)cc2)c2ccccc12 [Example 4, 1-(4-(2-(3-(Fluoromethyl)azetidin-1-yl)ethoxy)benzyl)-3-methyl-2-phenyl-1H-indole]
EC50: 200 nM
ER-alpha MCF7 HCS Sinf: −81%

Cc1c(-c2ccc(O)cc2)n(Cc2ccc(OCCN3CC(CF)C3)cc2)c2ccccc12 [Example 5, 4-(1-(4-(2-(3-(Fluoromethyl)azetidin-1-yl)ethoxy)benzyl)-3-methyl-1H-indol-2-yl)phenol]
EC50: 65 nM
ER-alpha MCF7 HCS Sinf: −93%

Cn1c(-c2ccc(O)cc2)c(C(=O)c2ccc(OCCN3CC(CF)C3)cc2)c2ccc(O)cc21 [Example 6, (4-(2-(3-(Fluoromethyl)azetidin-1-yl)ethoxy)phenyl)(6-hydroxy-2-(4-hydroxyphenyl)-1-methyl-1H-indol-3-yl)methanone]
EC50: 550 nM
ER-alpha MCF7 HCS Sinf: −50%

CS(=O)(=O)c1ccc(-c2ccc3cc(O)ccc3c2Oc2ccc(OCCN3CC(CF)C3)cc2)cc1 [Example 7, 5-(4-(2-(3-(Fluoromethyl)azetidin-1-yl)ethoxy)phenoxy)-6-(4-(methylsulfonyl)phenyl)naphthalen-2-ol]
EC50: 1.6 nM
ER-alpha MCF7 HCS Sinf: −95%

CS(=O)(=O)c1ccc(-c2ccc3cc(O)ccc3c2Oc2ccc(OCCN3CC[C@@H](CF)C3)cc2)cc1 [Example 8, (R)-5-(4-(2-(3-(Fluoromethyl)pyrrolidin-1-yl)ethoxy)phenoxy)-6-(4-(methylsulfonyl)phenyl)naphthalen-2-ol]
EC50: 0.27 nM
ER-alpha MCF7 HCS Sinf: −95%

O=C(c1ccc(OCCN2CC(CF)C2)cc1)c1c(-c2ccc(O)cc2)sc2cc(O)ccc12 [Example 9, (4-(2-(3-(fluoromethyl)azetidin-1-yl)ethoxy)phenyl)(6-hydroxy-2-(4-hydroxyphenyl)benzo[b]thiophen-3-yl)methanone]
EC50: 1.1 nM
ER-alpha MCF7 HCS Sinf: −97%

O=C(c1ccc(OCCN2CC(CF)C2)cc1)c1c(-c2ccc(F)cc2)sc2cc(O)ccc12 [Example 10, (4-(2-(3-(fluoromethyl)azetidin-1-yl)ethoxy)phenyl)(2-(4-fluorophenyl)-6-hydroxyhenzo[b]thiophen-3-yl)methanone]
EC50: 0.45 nM
ER-alpha MCF7 HCS Sinf: −96%

Oc1ccc(-c2sc3cc(O)ccc3c2Oc2ccc(OCCN3CC(CF)C3)cc2)cc1 [Example 11, 3-(4-(2-(3-(Fluoromethyl)azetidin-1-yl)ethoxy)phenoxy)-2-(4-hydroxyphenyl)benzo[b]thiophen-6-ol]
EC50: 0.13 nM
ER-alpha MCF7 HCS Sinf: −94%

COc1ccc(-c2sc3cc(O)ccc3c2Oc2ccc(OC[C@H](C)N3CC[C@@H](CF)C3)cc2)cc1 [Example 12, 3-(4-((S)-2-((R)-3-(Fluoromethyl)pyrrolidin-1-yl)propoxy)phenoxy)-2-(4-methoxyphenyl)benzo [6]thiophen-6-ol]
EC50: 310 nM
ER-alpha MCF7 HCS Sinf: −50%

CCN(Cc1ccc(OCCN2CC(CF)C2)cc1)c1cc(OC)ccc1C1CCc2cc(O)ccc2C1 (stereo not shown) [Example 13, 6-(2-(Ethyl(4-(2-(3-(fluoromethyl)azetidin-1-yl)ethoxy)benzyl)amino)-4-methoxyphenyl)-5,6,7,8-tetrahydronaphthalen-2-ol]
EC50: 7.5 nM
ER-alpha MCF7 HCS Sinf: −55%

Oc1ccc(-c2onc(-c3ccccc3Cl)c2-c2ccc(OCCN3CC(CF)C3)cc2)cc1 [Example 14, 4-(3-(2-Chlorophenyl)-4-(4-(2-(3-(fluoromethyl)azetidin-1-yl)ethoxy)phenyl)isoxazol-5-yl)phenol]
EC50: 0.21 nM
ER-alpha MCF7 HCS Sinf: −99%

Oc1ccc(-c2onc(-c3ccccc3Cl)c2-c2ccc(OCCN3CC[C@@H](CF)C3)cc2)cc1 [Example 15, (R)-4-(3-(2-Chlorophenyl)-4-(4-(2-(3-(fluoromethyl)pyrrolidin-1-yl)ethoxy)phenyl)isoxazol-5-yl)phenol]
EC50: 2.3 nM
ER-alpha MCF7 HCS Sinf: −84%

Oc1ccc(-c2snc(-c3ccccc3Cl)c2-c2ccc(OCCN3CC(CF)C3)c(F)c2)cc1 [Example 16, 4-(3-(2-Chloro-phenyl)-4-{3-fluoro-4-[2-(3-fluoromethyl-azetidin-1-yl)-ethoxy]-phenyl}-isothiazol-5-yl)-phenol]
ER-alpha MCF7 HCS Sinf: −99.2%

O=C(c1ccc(OCCN2CC(CF)C2)c(F)c1)c1c(-c2ccccc2Cl)noc1-c1ccc(O)cc1 [Example 17, [3-(2-Chloro-phenyl)-5-(4-hydroxy-phenyl)-isoxazol-4-yl]-{3-fluoro-4-[2-(3-fluoromethyl-azetidin-1-yl)-ethoxy]-phenyl}-methanone]
EC50: 0.3 nM
ER-alpha MCF7 HCS Sinf: −102%

Oc1ccc(C(=C2CCCCC2)c2ccc(OCCN3CC(CF)C3)cc2)cc1 [Example 18, 4-(Cyclohexylidene-{4-[2-(3-fluoromethyl-azetidin-1-yl)-ethoxy]-phenyl}-methyl)-phenol]
EC50: 12 nM
ER-alpha MCF7 HCS Sinf: −89%

CC/C(=C(\c1ccccc1)c1ccc(OCCN2CC[C@@H](CF)C2)cc1)c1ccccc1 [Example 19, (R,Z)-1-(2-(4-(1,2-Diphenylbut-1-en-yl)phenoxy)ethyl)-3-(fluoromethyl)pyrrolidine]
EC50: 15 nM
ER-alpha MCF7 HCS Sinf: −75%

CC/C(=C(\c1ccccc1)c1ccc(OC[C@H](C)N2CC[C@@H](CF)C2)cc1)c1ccccc1 [Example 20, (R)-1-((S)-1-(4-((Z)-1,2-Diphenylbut-1-en-1-yl)phenoxy)propan-2-yl)-3-(fluoromethyl)pyrrolidine]
EC50: 24 nM
ER-alpha MCF7 HCS Sinf: −73%

CC/C(=C(\c1ccccc1)c1ccc(OCCN2CC(CF)C2)cc1)c1ccccc1 [Example 21, (Z)-1-(2-(4-(1,2-Diphenylbut-1-en-1-yl)phenoxy)ethyl)-3-(fluoromethyl)azetidine]
EC50: 11 nM
ER-alpha MCF7 HCS Sinf: −97%

CC/C(=C(\c1ccc(O)cc1)c1ccc(OCCN2CC[C@@H](CF)C2)cc1)c1ccccc1 [Example 22, (R,Z)-4-(1-(4-(2-(3-(Fluoromethyl)pyrrolidin-1-yl)ethoxy)phenyl)-2-phenylbut-1-en-yl)phenol]
EC50: 0.58 nM
ER-alpha MCF7 HCS Sinf: −83%

CC/C(=C(\c1ccc(O)cc1)c1ccc(OCCN2CC(CF)C2)cc1)c1ccccc1 [Example 23]
EC50: 0.59 nM
ER-alpha MCF7 HCS Sinf: −95%
